Laboratory results from patent US20200255807A1, “IN VITRO PROPAGATION OF PRIMARY CANCER CELLS” (University of Cape Town, priority 2017, published 2020).

Tested on: primary breast cancer cells
Assay: Isolation of primary breast cancer cells from biopsy samples by digestion with collagenase II plus an additional enzyme (cell yield and viability)
Assay type: cell-based, human
Conditions: for Mean fold increase in cell number (collagenase II = 1): additional enzyme used in conjunction with 5 μg/ml collagenase II, 45 min at 37° C., compared to collagenase II alone
Method: A fresh primary breast cancer tumour biopsy sample (10-200 mg of tissue) was placed in 5 ml Hanks Balanced Salts (HBSS; Lonza, Germany; pH=7.5) on ice and it was transported immediately to the laboratory. The biopsy sample was weighed and then cut into 1 mm by 1 mm pieces using a scalpel in a BSL2 cabinet. The cut pieces were placed in 1 ml HBSS containing 5 μg/ml collagenase II (Ambion, USA) with or without 5 U/ml hyaluronidase, dispase II or papain (10 mg/ml) and the tissue was digested by incubation at 37° C. with rotation for 45 min. After the incubation time, a […] cell strainer (Becton Dickinson, USA) was placed into a 50 ml tube. The undigested material was pipetted up and down 10 times and then placed onto the cell strainer. The cell strainer was washed with 10 ml of HBSS and the cells were pelleted at 500×g for 5 min. The pelleted cells were then washed with an additional 10 ml of HBSS.
The pelleted cells were re-suspended in DMEM/F12 containing 10% human A/B serum (Western Province Blood Transfusion Services), 100 IU penicillin/streptomycin (Lonza, Germany), 0.1 mM sodium pyruvate (Lonza, Germany), […] (Sigma, Germany), […] (Sigma, Germany), 5 mM ethanolamine (Sigma, Germany), 5 μg/ml selenium (Sigma, Germany) and 10 nM estradiol (Sigma, Germany). The cells were then plated into a multi well plate or dish, which was dependent on the cell number. The breast cancer cells were incubated at 37° C. for 2 days and the medium was replaced with fresh medium without 10 nM estradiol, but with 100 nM cortisol (Sigma, Germany). The medium was replaced every 2 days with fresh medium containing half the concentration of cortisol used on the previous day. When the cells were confluent they were split using a standard procedure (trypsin) into a larger culture vessel.

Molecule: Hyaluronidase
- Mean fold increase in cell number (collagenase II = 1) (breast biopsy samples): 2.7 (SD = 1.2-4.5) fold
- Mean fold increase in cell number (collagenase II = 1) (breast biopsy samples, listed as hyaluronidase): 2.7 fold
- Mean cell viability (additional enzyme used in conjunction with collagenase II for cell isolation, breast biopsy samples (Table 1)): 69%
- mean viability of the cells (enzyme used in conjunction with collagenase II, breast biopsy samples): 69%

B1: Papain: protease enzyme (10 mg/ml) added with collagenase II to the isolation buffer for digesting tumour biopsy tissue (protein, UniProt P00784 134-345, looked up)
Papain: IPEYVDWRQKGAVTPVKNQGSCGSCWAFSAVVTIEGIIKIRTGNLNEYSEQELLDCDRRSYGCNGGYPWSALQLVAQYGIHYRNTYPYEGVQRYCRSREKGPYAAKTDGVRQVQPYNEGALLYSIANQPVSVVLEAAGKDFQLYRGGIFVGPCGNKVDHAVAAVGYGPNYILIKNSWGTGWGENGYIRIKRGTGNSYGVCGLYTSSFYPVKN
- Mean fold increase in cell number (collagenase II = 1) (breast biopsy samples): 0.7 (SD = 0.4-0.9) fold
- Mean fold increase in cell number (collagenase II = 1) (breast biopsy samples, listed as papain): 0.7 fold
